Results reported in US5395624A, “Depigmenting cosmetic and/or dermatological composition containing a di- or tri-caffeoylquinic acid, or a mixture thereof” (L'Oreal, priority 1992, dated 1995).

Experiments:
fungal tyrosinase = test: in vitro test of inhibition of tyrosinase activity; assay type: biochemical; conditions: L-tyrosine with L-dopa co-substrate, pH 6.5, 25° C., dopachrome at 475 nm, read-out: IC 50 (content leading to 50% inhibition of the tyrosinase)
Text: The di- and tri-caffeoylquinic acids corresponding to general formula (I) have been studied comparatively with caffeic acid in equivalent molar quantities in the in vitro inhibition test of tyrosinase activity.
In this test, visible spectrometry at 475 mn is used to monitor the quantity of dopachrome formed during the chain of reactions by which tyrosine is transformed into melanins. These reactions are catalyzed in vitro using fungal tyrosinase in the presence of a reducing co-substrate (e.g., a small quantity of L-dopa) in order to initiate the hydroxylation reaction of L-tyrosine into L-dopa, which is then catalytically oxidized into dopaquinone, and then into dopachrome which is, an intermediate product, prior to the non-enzymatic oxidation reactions leading to melanin formation.
Accordingly, the concentration of dopachrome formed over time is measured in the presence and absence of the inhibitor.
The inhibition effect is expressed by the lowering of the maximum quantity of dopachrome formed (value of the optical density at 475 nm read on the flat part of the curve) in relation to the quantity obtained in the absence of the inhibitor.
For each compound, the content in micromoles per liter leading to 50% inhibition of the tyrosinase (IC 50) is measured.
A--Phosphate buffer 0.1M pH=6.5 (composition for 200 ml of buffer: 68.5 ml of NaH2 PO4 0.2M+31.5 ml of Na2 HPO4 0.2M+100 ml of water)
B--Mother solution of L-tyrosine at 2×10^-3 M in A
C--Mother solution of L-dopa at 10^-4 M in A
D--Mother solution of fungal tyrosinase at 2,400 units/ml in A
E--Mother solution of the inhibitor at 10^-2 M in ethanol (solutions C and D must be prepared the same day).
homogenize and establish equilibrium at 25° C.
add 0.05 ml of D to the test trough
mix rapidly and observe the kinetics by measuring absorption at 475 nm as a function of time.

[1] = background statement; cited from earlier work
melanocytes = conditions: background statement; cited from earlier work

Row | Structure (SMILES) | IC50 (fungal tyrosinase) [µM] | irritation [1] | cytotoxicity for melanocytes (melanocytes)
1 | O=C(C=Cc1ccc(O)c(O)c1)OC1CC(O)(C(=O)O)CC(OC(=O)C=Cc2ccc(O)c(O)c2)C1O (centres unmarked) [3,5-di-caffeoylquinic acid] | 52 |  | 
2 | O=C(C=Cc1ccc(O)c(O)c1)OC1CC(O)(C(=O)O)CC(O)C1OC(=O)C=Cc1ccc(O)c(O)c1 (centres unmarked) [4,5-di-caffeoylquinic acid] | 45 |  | 
3 | O=C(C=Cc1ccc(O)c(O)c1)OC1CC(O)(C(=O)O)CC(OC(=O)C=Cc2ccc(O)c(O)c2)C1OC(=O)C=Cc1ccc(O)c(O)c1 (centres unmarked) [3,4,5-tri-caffeoylquinic acid] | 29 |  | 
4 | Oc1ccc(O)cc1 [hydroquinone] |  | especially irritating | cytotoxic for melanocytes
5 | O=C(O)/C=C/c1ccc(O)c(O)c1 [Caffeic acid, reference compound] | 530 |  | 
6 | O=C(C=Cc1ccc(O)c(O)c1)OC1CC(O)(C(=O)O)CC(O)C1OC(=O)C=Cc1ccc(O)c(O)c1 (centres unmarked) [3,4-di-caffeoylquinic acid] | 85 |  | 
7 | O=C(C=Cc1ccc(O)c(O)c1)OC1CC(OC(=O)C=Cc2ccc(O)c(O)c2)(C(=O)O)CC(O)C1O (centres unmarked) [1,3-di-caffeoylquinic acid] | 47 |  | 
